We go through 38 molecules from US8604190B2, “Hetero isonipecotic modulators of vanilloid VR1 receptor” (Janssen Pharmaceutica NV, priority 2004, dated 2013).

Molecules are shown by their SMILES.

The test has as its target T1, human VR1 (Homo sapiens, UniProt Q8NER1).
T1 construct: expressed in transfected cells; host or cells: A431 cells
In words: Human VR1 functional assay (FLIPR, intracellular Ca++). Format: cell-based. As to conditions: A431 cells expressing human VR1, Ca++-sensitive dye, dose-response. The protocol: The compounds of the invention were tested using a high throughput VR-1 FLIPR assay.
Human VR1 Functional Assay
The functional activity of the test compounds was determined by measuring changes in intracellular calcium concentration using a Ca^++-sensitive fluorescent dye and FLIPR™ technology. Increases in Ca^++ concentration were readily detected upon challenge with resiniferatoxin (RTX). A431 cells expressing human VR1 were seeded on polystyrene 384-well back walled clear bottom assay plates coated with collagen and incubated for 3-4 hours at 37° C. with 5% CO2 in DMEM. Plates were loaded with […] of 2× Dye Solution, incubated for 1-1.5 hours and subsequently tested for agonist-induced increases in intracellular Ca^2+ levels using FLIPR™ technology. Cells were challenged with test compounds (at varying concentrations) and intracellular Ca^++ was measured prior to the addition of resiniferatoxin to all wells to elicit ˜80% maximal response. EC50 or IC50 values were determined from dose-response studies.

Usually EC50 stands for the concentration at which the effect is half-maximal. A higher EC50 goes with weaker potency.

T1 sequence (Q8NER1 whole entry): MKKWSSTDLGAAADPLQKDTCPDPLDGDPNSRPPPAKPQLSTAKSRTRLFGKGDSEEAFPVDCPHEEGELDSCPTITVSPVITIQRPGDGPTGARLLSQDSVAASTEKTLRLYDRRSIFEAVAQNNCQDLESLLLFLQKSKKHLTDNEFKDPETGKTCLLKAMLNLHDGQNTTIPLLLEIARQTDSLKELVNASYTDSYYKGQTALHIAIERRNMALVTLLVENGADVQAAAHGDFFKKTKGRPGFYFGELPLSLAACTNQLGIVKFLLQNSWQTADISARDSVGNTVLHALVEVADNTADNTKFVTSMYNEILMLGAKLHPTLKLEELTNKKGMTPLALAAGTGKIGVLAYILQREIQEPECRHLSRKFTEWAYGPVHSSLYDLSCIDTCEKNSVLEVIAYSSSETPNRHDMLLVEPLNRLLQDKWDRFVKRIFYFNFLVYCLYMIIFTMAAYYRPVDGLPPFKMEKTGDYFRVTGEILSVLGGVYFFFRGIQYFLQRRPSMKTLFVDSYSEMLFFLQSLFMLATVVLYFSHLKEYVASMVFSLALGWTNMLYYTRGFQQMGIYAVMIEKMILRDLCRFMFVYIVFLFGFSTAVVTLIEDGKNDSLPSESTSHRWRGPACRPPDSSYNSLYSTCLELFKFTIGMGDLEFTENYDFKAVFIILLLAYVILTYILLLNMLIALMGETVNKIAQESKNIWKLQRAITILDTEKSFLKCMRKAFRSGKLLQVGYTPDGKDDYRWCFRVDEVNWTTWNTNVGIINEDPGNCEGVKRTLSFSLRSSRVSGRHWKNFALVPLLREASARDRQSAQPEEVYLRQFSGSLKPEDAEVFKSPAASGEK

Molecule `Cc1cccc(N2CCC(C(=O)N3CCC(O)C3)CC2)c1C` (centres unmarked) [Compound 36] registered an EC50 of 5.2 µM.
`Cc1ccc(N2CCC(C(=O)N3CCOCC3)CC2)cc1F` [Compound 19]: the EC50 was 2 µM.
As for `Cc1cccc(N2CCC(C(=O)N3CCC(O)CC3)CC2)c1C` [Compound 2, [1-(2,3-Dimethyl-phenyl)-piperidin-4-yl]-(4-hydroxy-piperidin-1-yl)-methanone], the EC50 was 0.24 µM.
For `Cc1ccccc1N1CCC(C(=O)N2CCSC2)CC1` [Compound 37], the EC50 was 5.4 µM.
In the case of `COc1cccc(N2CCC(C(=O)N3CCOCC3)CC2)c1` [Compound 27], the EC50 is 3.53 µM.
On to `O=C(C1CCN(c2cc(F)cc(F)c2)CC1)N1CCOCC1` [Compound 15], for which the EC50 was determined as 1.85 µM.
As for `Cc1ccc(N2CCC(C(=O)N3CCC(O)CC3)CC2)cc1F` [Compound 22], a half-maximal effect (EC50) was put at 2.3 µM.
Regarding `O=C(C1CCN(c2cccc3ccccc23)CC1)N1CCCCC1` [Compound 17], the EC50 turned out to be 1.91 µM.
Regarding `Cc1ccccc1N1CCC(C(=O)N2CCC(O)CC2)CC1` [Compound 11], a half-maximal response (EC50) required 1.42 µM.
Molecule `O=C(C1CCN(c2cccc(C(F)(F)F)c2)CC1)N1CCOCC1` [Compound 5, [1-(3-Trifluoromethyl-phenyl)-piperidin-4-yl]-morpholin-4-yl-methanone] returned an EC50 of 0.33 µM. This EC50 lies about 4.3-fold lower than the previous one.
`Cc1cccc(N2CCC(C(=O)N3CCSCC3)CC2)c1C` [Compound 7] displayed an EC50 of 0.76 µM.
On to `Cc1ccccc1N1CCC(C(=O)N2CCOCC2)CC1` [Compound 13], for which the EC50 turned out to be 1.59 µM.
In the case of `O=C(C1CCN(c2cccc(C(F)(F)F)c2)CC1)N1CCCCC1` [Compound 28], the EC50 was 3.7 µM.
The molecule `COc1cccc(N2CCC(C(=O)N3CCSCC3)CC2)c1` [Compound 34] gave an EC50 of 4.37 µM.
`Cc1ccc(N2CCC(C(=O)N3CCC(O)CC3)CC2)cc1C` [Compound 8] gave an EC50 of 0.91 µM.
With `O=C(C1CCN(c2cc(F)cc(F)c2)CC1)N1CCSCC1` [Compound 18], the EC50 came out at 1.97 µM.
For `Cc1cccc(N2CCC(C(=O)N3CCCCC3)CC2)c1` [Compound 29], the midpoint of the response, the EC50, lay at 3.8 µM.
In the case of `Cc1ccc(N2CCC(C(=O)N3CCOCC3)CC2)cc1C` [Compound 12], the EC50 turned out to be 1.5 µM.
The molecule `Cc1ccccc1N1CCC(C(=O)N2CCSCC2)CC1` [Compound 1, (1-o-Tolyl-piperidin-4-yl)-thiomorpholin-4-yl-methanone] gave an EC50 of 0.23 µM.
Take `O=C(C1CCN(c2cc(F)cc(F)c2)CC1)N1CCCCC1` [Compound 20]: the midpoint of the response, the EC50, lay at 2.05 µM.
`O=C(C1CCN(c2cccc(-c3ccccc3)c2)CC1)N1CCSCC1` [Compound 21]: the EC50 is 2.2 µM.
As to `Cc1ccc(N2CCC(C(=O)N3CCSCC3)CC2)cc1C` [Compound 6, [1-(3,4-Dimethyl-phenyl)-piperidin-4-yl]-thiomorpholin-4-yl-methanone], the EC50 was 0.34 µM.
The same measure for `O=C(C1CCN(c2cc(F)cc(F)c2)CC1)N1CCC(O)CC1` [Compound 23]: 2.8 µM.
`Cc1cccc(N2CCC(C(=O)N3C(C)CCCC3C)CC2)c1C` (centres unmarked) [Compound 35]: the EC50 was found to be 4.6 µM.
As for `Cc1ccccc1N1CCC(C(=O)N2CCCCCC2)CC1` [Compound 25], a half-maximal effect (EC50) was put at 3.2 µM.
As to `Cc1ccccc1N1CCC(C(=O)N2CCCCC2)CC1` [Compound 26], the EC50 was 3.26 µM.
The figure for `Cc1cccc(N2CCC(C(=O)N3CCCCC3)CC2)c1C` [Compound 14] is 1.64 µM.
With `Cc1cccc(N2CCC(C(=O)N3CCSC3)CC2)c1C` [Compound 16], the EC50 was found to be 1.89 µM.
For the molecule `CC(=O)N1CCN(C(=O)C2CCN(c3cccc(-c4ccccc4)c3)CC2)CC1` [Compound 30], it took 3.8 µM to reach a half-maximal effect (EC50).
In the case of `O=C(C1CCN(c2cccc(-c3ccccc3)c2)CC1)N1CCCCC1` [Compound 33], the EC50 came out at 4.1 µM. This EC50 and that of the molecule before are within 1.5-fold of each other.
As to `O=C(C1CCN(c2cccc3ccccc23)CC1)N1CCSC1` [Compound 24], it took 3.1 µM to reach a half-maximal effect (EC50).
Consider `Cc1ccc(N2CCC(C(=O)N3CCCCC3)CC2)cc1C` [Compound 9], for which the EC50 amounted to 1.04 µM. This EC50 is about 3-fold lower than that of the molecule before.
Consider `O=C(C1CCN(c2cccc(-c3ccccc3)c2)CC1)N1CCOCC1` [Compound 3, (1-Biphenyl-3-yl-piperidin-4-yl)-morpholin-4-yl-methanone], for which the EC50 is 0.27 µM. Against the preceding molecule, the EC50 is about 3.9-fold lower.
`Cc1ccc(N2CCC(C(=O)N3CCSCC3)CC2)cc1F` [Compound 4, [1-(3-Fluoro-4-methyl-phenyl)-piperidin-4-yl]-thiomorpholin-4-yl-methanone] registered an EC50 of 0.27 µM.
Regarding `Cc1ccccc1N1CCC(C(=O)N2CCCC2)CC1` [Compound 38], the response was half-maximal at 7.84 µM (EC50). Against the preceding molecule, the EC50 is about 29-fold higher.
The molecule `CC(=O)N1CCN(C(=O)C2CCN(c3cccc(C)c3C)CC2)CC1` [Compound 31] displayed an EC50 of 4 µM.
The figure for `Cc1cccc(N2CCC(C(=O)N3CCOCC3)CC2)c1` [Compound 32] is 4.1 µM; for `Cc1ccc(N2CCC(C(=O)N3CCCCC3)CC2)cc1F` [Compound 10] it is 1.3 µM.
